Results published in patent US10577363B2, “Substituted piperidine compounds” (EPIZYME, INC., priority 2014, dated 2020).

biological target: SMYD3 (Homo sapiens (Human), UniProt Q9H7B4); test: SMYD3 biochemical assay (SPA, 3H-SAM methylation of MEKK2 protein substrate); details: read-out: SMYD3 Biochem IC50 (μM)*
In short: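 Full-length native human SMYD3 (E. coli-expressed, tags removed) preincubated with compounds 30 min at room temperature, then reaction started with 3H-SAM and GST-tagged MEKK2 protein in 25 mM Tris-Cl pH 8.0, 1 mM TCEP, 0.005% BSG, 0.005% Tween 20. Quenched with unlabelled SAM (100 uM final); 3H-MEKK2 counted by SPA.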

IC50 [µM] | Structure (SMILES)
> 10 | CCOC(=O)CS(=O)(=O)N1CC[C@@H](NC(=O)c2cc(C3CC3)on2)C[C@@H]1C [compound 245, ethyl 2-(((2S,4R)-4-(5-cyclopropylisoxazole-3-carboxamido)-2-methylpiperidin-1-yl)sulfonyl)acetate]
> 10 | CNS(=O)(=O)N1CC[C@H](NC(=O)c2cc(C3CC3)on2)C[C@H]1C [compound 214, 5-cyclopropyl-N-((2R,4S)-2-methyl-1-(N-methylsulfamoyl)piperidin-4-yl)isoxazole-3-carboxamide]
1.45 | C[C@H]1CC(NC(=O)c2cc(C3CC3)on2)CCN1C(=O)CC(C)(C)CN (stereo partly drawn) [compound 103, N-((2S)-1-(4-amino-3,3-dimethylbutanoyl)-2-methylpiperidin-4-yl)-5-cyclopropylisoxazole-3-carboxamide]
3.46 | CC(C)OCCS(=O)(=O)N1CC[C@H](NC(=O)c2cc(C3CC3)on2)C[C@@H]1C [compound 237, 5-cyclopropyl-N-((2S,4S)-1-((2-isopropoxyethyl)sulfonyl)-2-methylpiperidin-4-yl)isoxazole-3-carboxamide]
42.7 | O=C(NC1CCN(C[C@H](O)Cc2ccc(O)cc2)CC1)c1cc(C2CC2)on1 [compound 30, (R)-5-cyclopropyl-N-(1-(2-hydroxy-3-(4-hydroxyphenyl)propyl)piperidin-4-yl)isoxazole-3-carboxamide]
> 10 | C[C@@H]1C[C@@H](NC(=O)c2cc(C3CC3)on2)CCN1S(=O)(=O)Cc1cccnc1 [compound 374, 5-cyclopropyl-N-((2R,4S)-2-methyl-1-((pyridin-3-ylmethyl)sulfonyl)piperidin-4-yl)isoxazole-3-carboxamide]
0.473 | C[C@H](N)CC(=O)NC[C@H](Cc1ccc(O)c(I)c1)C(=O)N1CCC(NC(=O)c2cc(C3CC3)on2)CC1 [compound 33, N-(1-((S)-3-((S)-3-aminobutanamido)-2-(4-hydroxy-3-iodobenzyl)propanoyl)piperidin-4-yl)-5-cyclopropylisoxazole-3-carboxamide]
1.22 | COC(=O)C1CN(C(=O)[C@H]2CC[C@H](N)CC2)CC(C)C1NC(=O)c1cc(C2CC2)on1 (stereo partly shown) [compound 468, methyl 1-((1r,4r)-4-aminocyclohexane-1-carbonyl)-4-(5-cyclopropylisoxazole-3-carboxamido)-5-methylpiperidine-3-carboxylate]
10 | CN1CCC(C(=O)N2CCC(NC(=O)c3cc(C4CC4)on3)CC2)CC1 [compound 16, 5-cyclopropyl-N-(1-(1-methylpiperidine-4-carbonyl)piperidin-4-yl)isoxazole-3-carboxamide]
> 10 | NCCCC(=O)N1CC[C@H](NC(=O)c2cc(C3CC3)on2)[C@H](c2ccccc2)C1 [compound 221, N-((3R,4S)-1-(4-aminobutanoyl)-3-phenylpiperidin-4-yl)-5-cyclopropylisoxazole-3-carboxamide]
> 10 | C[C@@H]1C[C@H](NC(=O)c2cc(C3CC3)on2)CCN1S(=O)(=O)C1CC1 [compound 216, 5-cyclopropyl-N-((2R,4R)-1-(cyclopropylsulfonyl)-2-methylpiperidin-4-yl)isoxazole-3-carboxamide]
0.852 | C[C@@H]1C[C@H](NC(=O)c2cc(C3CC3)on2)CCN1C(=O)[C@H](C)C1CCNCC1 [compound 306, 5-cyclopropyl-N-((2R,4R)-2-methyl-1-((R)-2-(piperidin-4-yl)propanoyl)piperidin-4-yl)isoxazole-3-carboxamide]

Structure (SMILES) | IC50 [µM]
N[C@H]1CC[C@H](C(=O)N2C3CCCC2CC(NC(=O)c2cc(C4CC4)on2)C3)CC1 (stereo partly shown) [compound 73, N-(9-((1r,4r)-4-aminocyclohexane-1-carbonyl)-9-azabicyclo[3.3.1]nonan-3-yl)-5-cyclopropylisoxazole-3-carboxamide] | 5.35
